# Tested on: 168753-222-R-J1-PDC complex spheroid viability
# Test: Anticancer human tumor 168753-222-R-J1-PDC patient-derived bladder carcinoma cell line growth inhibition [CLK]
# Conditions: for viability, T/C: stronger effect = lower value
# Summary of the method: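 Multi-cell-type spheroids combined patient-derived tumor cells with HUVEC endothelial cells and human mesenchymal stem cells. Paired agents were dosed in half-log steps down from about clinical Cmax, or from 10 microM where Cmax was unknown.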
# [1] = curve of first compound, second compound 0.0316 µM
# [2] = curve of first compound, second compound 0.1 µM
# [3] = curve of first compound, second compound 0.316 µM
# [4] = curve of first compound, second compound 1 µM
# [5] = curve of first compound, second compound 3.16 µM
# [6] = curve of first compound, second compound 10 µM
# [7] = second compound 0.0316 µM, first compound 0.00949 µM
# [8] = second compound 0.0316 µM, first compound 0.03 µM
# [9] = second compound 0.0316 µM, first compound 0.0949 µM
# [10] = second compound 0.0316 µM, first compound 0.3 µM
# [11] = second compound 0.1 µM, first compound 0.00949 µM
# [12] = second compound 0.1 µM, first compound 0.03 µM
# [13] = second compound 0.1 µM, first compound 0.0949 µM
# [14] = second compound 0.1 µM, first compound 0.3 µM
# [15] = second compound 0.316 µM, first compound 0.00949 µM
# [16] = second compound 0.316 µM, first compound 0.03 µM
# [17] = second compound 0.316 µM, first compound 0.0949 µM
# [18] = second compound 0.316 µM, first compound 0.3 µM
# [19] = second compound 1 µM, first compound 0.00949 µM
# [20] = second compound 1 µM, first compound 0.03 µM
# [21] = second compound 1 µM, first compound 0.0949 µM
# [22] = second compound 1 µM, first compound 0.3 µM
# [23] = second compound 3.16 µM, first compound 0.00949 µM
# [24] = second compound 3.16 µM, first compound 0.03 µM
# [25] = second compound 3.16 µM, first compound 0.0949 µM
# [26] = second compound 3.16 µM, first compound 0.3 µM
# [27] = second compound 10 µM, first compound 0.00949 µM
# [28] = second compound 10 µM, first compound 0.03 µM
# [29] = second compound 10 µM, first compound 0.0949 µM
# [30] = second compound 10 µM, first compound 0.3 µM
# 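Further: viability measured after seven days of drug exposure.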
# 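Wherever viability, T/C is given: luminescence signal used as surrogate for viable cell amount; 100% = DMSO vehicle control wells.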
structure (smiles),measurement,setting,value
CC1(C)CCC(CN2CCN(c3ccc(C(=O)NS(=O)(=O)c4ccc(NCC5CCOCC5)c([N+](=O)[O-])c4)c(Oc4cnc5[nH]ccc5c4)c3)CC2)=C(c2ccc(Cl)cc2)C1 + CNC(=O)c1ccc(Nc2nc(OC3CCCC3)c3c(-c4ccc5nc(C)oc5c4)c[nH]c3n2)c(OC)c1,IC50,[1],6520 nM
same,IC50,[2],5810 nM
same,IC50,[3],4580 nM
same,IC50,[4],45.8 nM
same,IC50,[5],< 31.6 nM
same,IC50,[6],< 31.6 nM
same,"viability, T/C","second compound 0.0316 µM, first compound 0.0316 µM",109%
same,"viability, T/C","second compound 0.0316 µM, first compound 0.1 µM",112%
same,"viability, T/C","second compound 0.0316 µM, first compound 0.316 µM",104%
same,"viability, T/C","second compound 0.0316 µM, first compound 1 µM",109%
same,"viability, T/C","second compound 0.0316 µM, first compound 3.16 µM",97%
same,"viability, T/C","second compound 0.0316 µM, first compound 10 µM",22%
same,"viability, T/C","second compound 0.1 µM, first compound 0.0316 µM",99.7%
same,"viability, T/C","second compound 0.1 µM, first compound 0.1 µM",99.5%
same,"viability, T/C","second compound 0.1 µM, first compound 0.316 µM",101%
same,"viability, T/C","second compound 0.1 µM, first compound 1 µM",95.7%
same,"viability, T/C","second compound 0.1 µM, first compound 3.16 µM",90.2%
same,"viability, T/C","second compound 0.1 µM, first compound 10 µM",14%
same,"viability, T/C","second compound 0.316 µM, first compound 0.0316 µM",75.2%
same,"viability, T/C","second compound 0.316 µM, first compound 0.1 µM",77%
same,"viability, T/C","second compound 0.316 µM, first compound 0.316 µM",79.6%
same,"viability, T/C","second compound 0.316 µM, first compound 1 µM",80.3%
same,"viability, T/C","second compound 0.316 µM, first compound 3.16 µM",66.7%
same,"viability, T/C","second compound 0.316 µM, first compound 10 µM",12.6%
same,"viability, T/C","second compound 1 µM, first compound 0.0316 µM",50.4%
same,"viability, T/C","second compound 1 µM, first compound 0.1 µM",49.5%
same,"viability, T/C","second compound 1 µM, first compound 0.316 µM",38.4%
same,"viability, T/C","second compound 1 µM, first compound 1 µM",25.9%
same,"viability, T/C","second compound 1 µM, first compound 3.16 µM",27.2%
same,"viability, T/C","second compound 1 µM, first compound 10 µM",13.8%
same,"viability, T/C","second compound 3.16 µM, first compound 0.0316 µM",23.3%
same,"viability, T/C","second compound 3.16 µM, first compound 0.1 µM",23.1%
same,"viability, T/C","second compound 3.16 µM, first compound 0.316 µM",19.5%
same,"viability, T/C","second compound 3.16 µM, first compound 1 µM",20%
same,"viability, T/C","second compound 3.16 µM, first compound 3.16 µM",17.6%
same,"viability, T/C","second compound 3.16 µM, first compound 10 µM",23.9%
same,"viability, T/C","second compound 10 µM, first compound 0.0316 µM",18.1%
same,"viability, T/C","second compound 10 µM, first compound 0.1 µM",17.3%
same,"viability, T/C","second compound 10 µM, first compound 0.316 µM",17.6%
same,"viability, T/C","second compound 10 µM, first compound 1 µM",17.3%
same,"viability, T/C","second compound 10 µM, first compound 3.16 µM",15.8%
same,"viability, T/C","second compound 10 µM, first compound 10 µM",20.4%
CN1CCN(c2cc(C(=O)Nc3cc4cc(-c5cnn(C)c5)ccc4cn3)ccn2)CC1,"viability, T/C",compound 0.316 µM,10.2% [middle of 12 runs]
same,"viability, T/C",compound 1 µM,1.32% [middle of 11 runs]
same,"viability, T/C",compound 3.16 µM,0.5% [middle of 11 runs]
same,"viability, T/C",compound 10 µM,0.32% [middle of 10 runs]
same,IC50,"compound alone, run of 07/31/2023",102 nM [middle of 12 runs]
NC(=O)C(=Cn1cnc(-c2cc(C(F)(F)F)cc(C(F)(F)F)c2)n1)c1cncnc1 + CN1CCN(c2cc(C(=O)Nc3cc4cc(-c5cnn(C)c5)ccc4cn3)ccn2)CC1,IC50,[1],56.2 nM
same,IC50,[2],13.6 nM
same,IC50,[3],< 9.49 nM
same,IC50,[4],< 9.49 nM
same,IC50,[5],< 9.49 nM
same,IC50,[6],< 9.49 nM
same,"viability, T/C",[7],75.6%
same,"viability, T/C",[8],72.3%
same,"viability, T/C",[9],31.5%
same,"viability, T/C",[10],22.6%
same,"viability, T/C","second compound 0.0316 µM, first compound 0.949 µM",15%
same,"viability, T/C","second compound 0.0316 µM, first compound 3 µM",12.9%
same,"viability, T/C",[11],61.4%
same,"viability, T/C",[12],25.2%
same,"viability, T/C",[13],10.8%
same,"viability, T/C",[14],10.9%
same,"viability, T/C","second compound 0.1 µM, first compound 0.949 µM",5.67%
same,"viability, T/C","second compound 0.1 µM, first compound 3 µM",3.14%
same,"viability, T/C",[15],6.93%
same,"viability, T/C",[16],4.81%
same,"viability, T/C",[17],0.76%
same,"viability, T/C",[18],0.08%
same,"viability, T/C","second compound 0.316 µM, first compound 0.949 µM",0.11%
same,"viability, T/C","second compound 0.316 µM, first compound 3 µM",0.75%
same,"viability, T/C",[19],0.09%
same,"viability, T/C",[20],0.15%
same,"viability, T/C",[21],0.1%
same,"viability, T/C",[22],0.05%
same,"viability, T/C","second compound 1 µM, first compound 0.949 µM",0.06%
same,"viability, T/C","second compound 1 µM, first compound 3 µM",0.72%
same,"viability, T/C",[23],0.06%
same,"viability, T/C",[24],0.22%
same,"viability, T/C",[25],0.75%
same,"viability, T/C",[26],0.08%
same,"viability, T/C","second compound 3.16 µM, first compound 0.949 µM",0.69%
same,"viability, T/C","second compound 3.16 µM, first compound 3 µM",0.12%
same,"viability, T/C",[27],0.87%
same,"viability, T/C",[28],0.14%
same,"viability, T/C",[29],0.3%
same,"viability, T/C",[30],0.13%
same,"viability, T/C","second compound 10 µM, first compound 0.949 µM",0.22%
same,"viability, T/C","second compound 10 µM, first compound 3 µM",0.56%
C=CC(=O)Nc1cc(Nc2nccc(-c3cn(C)c4ccccc34)n2)c(OC)cc1N(C)CCN(C)C + CNC(=O)c1ccc(Nc2nc(OC3CCCC3)c3c(-c4ccc5nc(C)oc5c4)c[nH]c3n2)c(OC)c1,IC50,[1],> 300 nM
same,IC50,[2],> 300 nM
same,IC50,[3],> 300 nM
same,IC50,[4],< 0.949 nM
same,IC50,[5],< 0.949 nM
same,IC50,[6],< 0.949 nM
same,"viability, T/C","second compound 0.0316 µM, first compound 0.000949 µM",122%
same,"viability, T/C","second compound 0.0316 µM, first compound 0.003 µM",96.3%
same,"viability, T/C",[7],102%
same,"viability, T/C",[8],102%
same,"viability, T/C",[9],107%
same,"viability, T/C",[10],103%
same,"viability, T/C","second compound 0.1 µM, first compound 0.000949 µM",91.1%
same,"viability, T/C","second compound 0.1 µM, first compound 0.003 µM",87%
same,"viability, T/C",[11],86.7%
same,"viability, T/C",[12],76.8%
same,"viability, T/C",[13],91.7%
same,"viability, T/C",[14],90.2%
same,"viability, T/C","second compound 0.316 µM, first compound 0.000949 µM",73.5%
same,"viability, T/C","second compound 0.316 µM, first compound 0.003 µM",69.6%
same,"viability, T/C",[15],69.3%
same,"viability, T/C",[16],63.8%
same,"viability, T/C",[17],71.8%
same,"viability, T/C",[18],62.5%
same,"viability, T/C","second compound 1 µM, first compound 0.000949 µM",37.1%
same,"viability, T/C","second compound 1 µM, first compound 0.003 µM",39.1%
same,"viability, T/C",[19],38.5%
same,"viability, T/C",[20],40.8%
same,"viability, T/C",[21],30.8%
same,"viability, T/C",[22],29%
same,"viability, T/C","second compound 3.16 µM, first compound 0.000949 µM",18.2%
same,"viability, T/C","second compound 3.16 µM, first compound 0.003 µM",19.3%
same,"viability, T/C",[23],19.5%
same,"viability, T/C",[24],22.8%
same,"viability, T/C",[25],19.6%
same,"viability, T/C",[26],16.9%
same,"viability, T/C","second compound 10 µM, first compound 0.000949 µM",16.3%
same,"viability, T/C","second compound 10 µM, first compound 0.003 µM",19.8%
same,"viability, T/C",[27],18.5%
same,"viability, T/C",[28],15.6%
same,"viability, T/C",[29],19.1%
same,"viability, T/C",[30],15.6%

# From PubChem BioAssay AID2060626 (Molecular Pharmacology Branch, DTP, NCI, 2025)
